# Test results: BindingDB's records for doi:10.1021/cb100060v (Binghamton University, 2010)
# Target: T1, Tubulin--tyrosine ligase (Homo sapiens, UniProt Q8NG68)
# T1 sequence (Q8NG68 whole entry): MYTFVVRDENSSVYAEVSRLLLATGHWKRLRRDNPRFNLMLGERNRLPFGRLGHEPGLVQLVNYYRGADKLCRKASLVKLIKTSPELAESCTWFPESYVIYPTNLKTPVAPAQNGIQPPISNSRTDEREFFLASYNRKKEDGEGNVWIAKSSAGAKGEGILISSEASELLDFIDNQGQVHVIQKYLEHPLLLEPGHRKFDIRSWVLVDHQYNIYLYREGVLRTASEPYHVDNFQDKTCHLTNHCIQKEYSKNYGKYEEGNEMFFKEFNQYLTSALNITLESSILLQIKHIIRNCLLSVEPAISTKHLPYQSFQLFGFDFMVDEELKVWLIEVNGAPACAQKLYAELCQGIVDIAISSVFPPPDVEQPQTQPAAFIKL
# Assay: [3H]-Tyr Incorporation Assay
# Conditions: pH 6.8; 37 °C
# From the text: Inhibition of [3H]-L-tyrosine incorporation into tubulin by enzyme tubulin tyrosine ligase (TTL).
row,Ki [µM],Compound
1,> 4000,Nc1ccc(CC(N)C(=O)O)cc1 (stereo not drawn) [4-Aminophenylalanine]
2,200,[N-]=[N+]=Nc1cc(CC(N)C(=O)O)ccc1O (stereo not drawn) [3-Azidotyrosine]
3,300,NC(Cc1ccc(O)c(C=O)c1)C(=O)O (stereo not drawn) [3-Formyltyrosine]
